Assay: xn = mol fraction of the nth substance listed
Conditions: 101 kPa, Liquid; for speed of sound: Pulse-echo method

CCCCCCCCCCO [decan-1-ol] + Cc1ccc(C)cc1
Conditions	mass density, 293.15 K [kg/m3]	mass density, 303.15 K [kg/m3]	mass density, 313.15 K [kg/m3]	speed of sound, 293.15 K [m/s]	speed of sound, 303.15 K [m/s]	speed of sound, 313.15 K [m/s]
x2 = 0	829.98	823.1	816.27	1396	1362	1329
x2 = 0.0806	831.76	824.74	817.76	1391	1356	1322
x2 = 0.1731	833.82	826.66	819.54	1385	1349	1314
x2 = 0.2506	835.6	828.33	821.08	1378	1342	1307
x2 = 0.3197	837.25	829.88	822.5	1373	1336	1300
x2 = 0.3693	838.49	831.04	823.57	1368	1331	1295
x2 = 0.4336	840.17	832.6	825.02	1362	1325	1289
x2 = 0.4929	841.79	834.12	826.43	1357	1320	1283
x2 = 0.5771	844.26	836.42	828.58	1350	1312	1275
x2 = 0.662	846.98	838.96	830.98	1344	1305	1267
x2 = 0.7265	849.2	841.06	832.94	1340	1300	1262
x2 = 0.7763	851.04	842.8	834.58	1337	1297	1258
x2 = 0.8293	853.13	844.77	836.44	1335	1294	1255
x2 = 0.8891	855.65	847.2	838.71	1333	1292	1252
x2 = 0.9369	857.84	849.27	840.68	1332	1290	1250

CCCCCCCCCCO [decan-1-ol] + Cc1ccccc1C
Conditions	mass density, 293.15 K [kg/m3]	mass density, 303.15 K [kg/m3]	mass density, 313.15 K [kg/m3]	speed of sound, 293.15 K [m/s]	speed of sound, 303.15 K [m/s]	speed of sound, 313.15 K [m/s]
x2 = 0	829.98	823.1	816.27	1396	1362	1329
x2 = 0.0766	832.48	825.52	818.51	1394	1359	1325
x2 = 0.1331	834.38	827.33	820.23	1391	1356	1322
x2 = 0.1823	836.1	828.96	821.79	1389	1354	1319
x2 = 0.2509	838.57	831.31	824.05	1386	1350	1315
x2 = 0.3173	841.06	833.71	826.36	1383	1347	1311
x2 = 0.3896	843.95	836.48	829.02	1379	1343	1307
x2 = 0.4556	846.73	839.16	831.61	1376	1339	1303
x2 = 0.5261	849.91	842.23	834.57	1372	1335	1298
x2 = 0.6054	853.77	845.95	838.18	1369	1332	1294
x2 = 0.6597	856.61	848.71	840.85	1367	1329	1292
x2 = 0.7364	860.94	852.91	844.92	1365	1327	1289
x2 = 0.8029	865.03	856.89	848.8	1364	1325	1287
x2 = 0.873	869.74	861.49	853.27	1364	1325	1287
x2 = 0.9447	875.04	866.72	858.33	1366	1326	1287

CCCCCCCCCO [nonan-1-ol] + CCc1ccccc1
Conditions	mass density, 293.15 K [kg/m3]	mass density, 303.15 K [kg/m3]	mass density, 313.15 K [kg/m3]	speed of sound, 293.15 K [m/s]	speed of sound, 303.15 K [m/s]	speed of sound, 313.15 K [m/s]
x2 = 0	827.7	820.82	813.88	1381	1347	1314
x2 = 0.0611	829.32	822.34	815.3	1378	1343	1309
x2 = 0.1285	831.14	824.06	816.91	1374	1338	1304
x2 = 0.1791	832.56	825.4	818.16	1371	1335	1300
x2 = 0.2466	834.5	827.23	819.87	1366	1330	1294
x2 = 0.3151	836.57	829.17	821.69	1362	1324	1288
x2 = 0.3717	838.35	830.85	823.26	1358	1320	1283
x2 = 0.4254	840.12	832.51	824.82	1354	1316	1279
x2 = 0.5007	842.74	834.99	827.14	1349	1311	1273
x2 = 0.5756	845.55	837.63	829.63	1345	1306	1267
x2 = 0.6411	848.19	840.11	831.97	1341	1302	1263
x2 = 0.7122	851.28	843.05	834.74	1339	1298	1259
x2 = 0.7798	854.46	846.08	837.59	1337	1296	1257
x2 = 0.8557	858.37	849.81	841.14	1336	1295	1255
x2 = 0.9341	862.85	854.1	845.28	1338	1295	1254

Source: the NIST ThermoML archive (doi:10.1021/je100734t)
